{"source": "patent US20150017242A1", "about": "(Lupin Limited, priority 2012, published 2015)", "origin": "cited, not measured here", "key": {"[1]": {"test": "not given", "remark": "listed apart in the source"}}, "note": "Read-outs that look alike come from different tables or passages of the source.", "data": [{"smiles": "CCCCc1oc2ccc(NS(C)(=O)=O)cc2c1C(=O)c1ccc(OCCCN(CCCC)CCCC)cc1.Cl", "note": "[Dronedarone, N-{2-butyl-3-[4-(3-dibutylaminopropoxy)benzoyl]benzofuran-5-yl}methane sulfonamide, hydrochloride]", "values": [{"measurement": "absolute oral bioavailability", "setting": "administered with a high fat meal", "result": "approx. 15%"}, {"measurement": "absolute oral bioavailability", "setting": "fasting", "result": 4, "unit": "%"}, {"measurement": "behaviour at higher pH condition", "setting": "[1]", "result": "precipitates out"}]}]}
